Columns and labels:
[1] = tested on: human iPS cells (1231A3 strain); assay: Neural tissue / neuroepithelium formation in cell aggregates, bright field observation; assay type: cell-based; details: for cell aggregate growth and neuroepithelium formation: step 1 for 1 day: SB431542 5 μM or LDN193189 100 nM, both U-bottom plate and F-bottom culture dish, day 19
Description: The above human iPS cells were treated with the cell dispersion solution by using TrypLE Select (Life Technologies), further dispersed into single cells by pipetting operation, and the above human iPS cells dispersed into single cells were suspended in 100 μl of a serum-free medium at 1.2×10^4 cells per well of a non-cell-adhesive 96-well culture plate ([…], manufactured by SUMITOMO BAKELITE), and subjected to suspension culturing at 37° C., 5% CO2. As the serum-free medium (gfCDM+KSR) therefor, a serum-free medium which is a 1:1 mixture of F-12 medium and IMDM medium supplemented with 10% KSR, 450 μM 1-monothioglycerol, 1× Chemically defined lipid concentrate was used. At the time of the start of suspension culturing (day 0 after the start of suspension culturing, start of step 2), Y27632 (final concentration 20 μM) was added to the above serum-free medium. By day 2 after the start of suspension culturing, cell aggregates were formed under both conditions with preconditioning and conditions without preconditioning (step 2 completed, step 3 start). On day 3 after the start of suspension culturing, a serum-free medium (50 μl) free of Y27632 was added. On day 6 or later after the start of suspension culturing, a half amount of the medium was changed to the above serum-free medium free of Y27632 once per 2-4 days. In the half-medium change operation, a half volume, namely 75 μl, of the medium in the culture vessel was discarded, the above fresh serum-free medium (75 μl) was added to make the total medium amount 150 μl. […]
At the time of the start of suspension culturing (day 0 after the start of suspension culturing, start of step 2), the cells were cultured under the following 2 conditions including condition 1 and condition 2. As condition 1(+SAG), at the time of the start of suspension culturing, Y27632 (final concentration 20 μM) and SAG (Shh signal transduction pathway activating substance, 300 nM) were added to the above serum-free medium. As condition 2(−SAG), at the time of the start of suspension culturing, Y27632 (final concentration 20 μM) was added to the above serum-free medium and SAG was not added. By day 2 after the start of suspension culturing, cell aggregates were formed (step 2 completed, step 3 start) under both conditions. On day 3 after the start of suspension culturing, a medium (50 μl) free of Y27632, SAG and containing human recombinant BMP4 (manufactured by R&D) was added such that the final concentration of exogenous human recombinant BMP4 was 1.5 nM (55 ng/ml). On day 6 after the start of suspension culturing, a half amount of the medium was changed with a serum-free medium free of Y27632, SAG and human recombinant BMP4. Thereafter, a half amount of the medium was changed, once every 2-4 days, with the above serum-free medium free of Y27632, SAG, and human recombinant BMP4.
The thus-prepared cells were subjected to bright field observation on day 18 after the start of suspension culturing under an inverted microscope (KEYENCE) (FIG. 15).
At the time of the start of suspension culturing (day 0 after the start of suspension culturing, start of step 2), the cells were cultured under the following 2 conditions including condition 1 and condition 2. As condition 1(+SAG), at the time of the start of suspension culturing, Y27632 (final concentration 20 μM) and SAG (Shh signal transduction pathway activating substance, final concentration 30 nM) were added to the above serum-free medium. As condition 2(−SAG), at the time of the start of suspension culturing, Y27632 (final concentration 20 μM) was added to the above serum-free medium and SAG was not added. By day 2 after the start of suspension culturing, cell aggregates were formed under both conditions (step 2 completed, step 3 start). […]

[2] = tested on: human iPS cells (1231A3 strain); assay: Form of cell aggregate in suspension culturing, bright field observation (good / medium / bad form); assay type: cell-based; details: step 1 for 1 day: SB431542 5 μM or LDN193189 100 nM; day 9
[3] = step 1 for 1 day: SB431542 5 μM, LDN193189 100 nM or SAG 300 nM, SAG 300 nM in step 2, with or without BMP4 1.5 nM in step 3, day 23
[4] = LDN193189 100 nM 1 day in step 1, day 23

Compound | cell aggregate growth and neuroepithelium formation ([1]; SAG 300 nM in step 2) | cell aggregate and neural tissue formation [1, 3] | shape of cell aggregate in step 3 compared with untreated group [2] | cell aggregate and neural tissue formation ([1]; step 1: SAG 300 nM for 24-144 hr, co-presence of A83-01 0.5 μM for the last 24 hr, SAG 30 nM added or not in step 2, day 16) | cell aggregate and neural tissue formation ([1]; step 1: SAG 300 nM for 48 or 72 hr, or A83-01 0.5 μM and SAG 300 nM for 24, 48 or 72 hr, SAG 30 nM added or not added in step 2, BMP4 1.5 nM on day 3, day 17) | cell aggregate containing a neural tissue (maintained, neural tissue not less than 10%) [1, 4] | cell aggregate with a bad form (collapsed, neural tissue not more than 3%) [1, 4] | cell aggregate with a medium level form (maintained, neural tissue not more than 10%) [1, 4] | neural tissue formation in step 3 [1, 4]
NC(=O)c1ccc(-c2nc(-c3ccc4c(c3)OCO4)c(-c3ccccn3)[nH]2)cc1 [SB431542, 4-(5-benzol[1,3]dioxol-5-yl-4-pyridin-2-yl-1H-imidazol-2-yl)-benzamide] | a cell aggregate grew and neuroepithelium was formed | a neural tissue can be formed efficiently | good shape of cell aggregate |  |  |  |  |  | 
CNC1CCC(N(Cc2cccc(-c3ccncc3)c2)C(=O)c2sc3ccccc3c2Cl)CC1 (stereo not shown) [SAG] |  | a neural tissue can be formed efficiently |  | a neural tissue could be formed efficiently | a neural tissue can be formed efficiently |  |  |  | 
c1ccc2c(-c3cnn4cc(-c5ccc(N6CCNCC6)cc5)cnc34)ccnc2c1 [LDN193189, 4-[6-(4-piperazin-1-ylphenyl)pyrazolo[1,5-a]pyrimidin-3-yl]quinoline] | a cell aggregate grew and neuroepithelium was formed | a neural tissue can be formed efficiently | good shape of a cell aggregate |  |  | about 100% | about 0% | about 0% | a neural tissue having a neuroepithelial structure was formed

Reference: patent US12492373B2, “Production method for nerve tissue” (Racthera Co., Ltd., priority 2014, dated 2025)
